pEC50: −log10 of the molar value. Where two headings read alike, the source gives them in different places.
Assays:
[1] = system: genotype 1b (Con-1) HCV replicon; assay: HCV replicon luciferase assay; format: cell-based; details: Hepatitis C virus, 72 h, Huh-7 cells with genotype 1b HCV replicon, Renilla luciferase, 3 days incubation; for pEC50: read-out: EC50 1b (class); for EC50: read-out: EC50 (μM) 1b
Method: Cell lines. The cell lines used to evaluate compounds consist of a human hepatocyte derived cell line (Huh-7) that constitutively expresses a genotype 1b (Con-1) HCV replicon or a genotype 1b (Con-1) HCV replicon with an asparagine replacing the cysteine at amino acid 316, or a genotype 2a (JFH-1) replicon, containing a Renilla luciferase reporter gene. These cells were maintained in Dulbecco's modified Eagle medium (DMEM) containing 10% FBS, 100 U/mL penicillin/streptomycin and 1.0 mg/mL G418.
HCV replicon luciferase assay. To evaluate compound efficacy, titrated compounds were transferred to sterile 384-well tissue culture treated plates, and the plates were seeded with HCV replicon cells (50 μL at a density of 2.4×10^3 cells/well) in DMEM containing 4% FBS (final DMSO concentration at 0.5%). After 3 days incubation at 37° C., cells were analyzed for Renilla Luciferase activity using the EnduRen substrate (Promega cat #E6485) according to the manufacturer's directions. Briefly, the EnduRen substrate was diluted in DMEM and then added to the plates to a final concentration of 7.5 μM. The plates were incubated for at least 1 h at 37° C. then read on a Viewlux Imager (PerkinElmer) using a luminescence program. The 50% effective concentration (EC50) was calculated using the four-parameter logistic formula noted above.
Compound EC50 data is expressed as A: <100 nM; B=100-1000 nM; C>1000 nM).

HCV [2] = details: cited from earlier work
HCV [3] = details: combination therapy; cited from earlier work

| Compound | pEC50 [1] | further results |
| --- | --- | --- |
| CCN(C#N)c1cc2oc(-c3ccc(F)cc3)c(C(=O)NC)c2cc1-c1cccc(C(=O)NCC(C)(C)c2ccccc2)c1 [Compound 1001] | > 7.00 | – |
| CCN(C#N)c1cc2oc(-c3ccc(F)cc3)c(C(=O)NC)c2cc1-c1cccc(C(=O)NCC(F)(F)C(F)(F)C(F)(F)C(F)(F)F)c1 [Compound 1002] | > 7.00 | EC50 [1]: 0.047 µM |
| CCN(C#N)c1cc2oc(-c3ccc(F)cc3)c(C(=O)NC)c2cc1-c1ccc(OC)c(C(=O)NC(CF)(CF)CF)c1 [Compound 1003] | > 7.00 | – |
| CCN(C#N)c1cc2oc(-c3ccc(F)cc3)c(C(=O)NC)c2cc1-c1cccc(C(=O)NC(C)(C)CC(C)O)c1 (stereo not shown) [Compound 1004] | > 7.00 | EC50 [1]: 0.013 µM |
| CCN(C#N)c1cc2oc(-c3ccc(F)cc3)c(C(=O)NC)c2cc1-c1cccc(C(=O)NC(C)(C)CO)c1 [Compound 1005] | > 7.00 | – |
| CCN(C#N)c1cc2oc(-c3ccc(F)cc3)c(C(=O)NC)c2cc1-c1cccc(C(=O)NC(C)(C)COC)c1 [Compound 1006] | > 7.00 | – |
| CCN(C#N)c1cc2oc(-c3ccc(F)cc3)c(C(=O)NC)c2cc1-c1cccc(C(=O)NC(C)(C)C#N)c1 [Compound 1007] | > 7.00 | EC50 [1]: 0.0041 µM |
| CCN(C#N)c1cc2oc(-c3ccc(F)cc3)c(C(=O)NC)c2cc1-c1ccc(OC)c(C(=O)NC2(C#N)CCCC2)c1 [Compound 1008] | > 7.00 | – |
| CCN(C#N)c1cc2oc(-c3ccc(F)cc3)c(C(=O)NC)c2cc1-c1ccc(F)c(C(=O)NC2(c3ncccn3)CC2)c1 [Compound 1009] | > 7.00 | – |
| CCN(C#N)c1cc2oc(-c3ccc(F)cc3)c(C(=O)NC)c2cc1-c1cccc(C(=O)NC2(C(F)(F)F)CC2)c1 [Compound 1010] | > 7.00 | – |
| CCN(C#N)c1cc2oc(-c3ccc(F)cc3)c(C(=O)NC)c2cc1-c1cccc(C(=O)NC(C)(CO)CO)c1 [Compound 1011] | 6.00 to 7.00 | – |
| CCN(C#N)c1cc2oc(-c3ccc(F)cc3)c(C(=O)NC)c2cc1-c1cccc(C2=NC(C)(C)C(=O)O2)c1 [Compound 1012] | 6.00 to 7.00 | EC50 [1]: 0.36 µM |
| CCN(C#N)c1cc2oc(-c3ccc(F)cc3)c(C(=O)NC)c2cc1-c1cccc(C(=O)NC2(c3ncccn3)CC2)c1 [Compound 1013] | > 7.00 | – |
| CCN(C#N)c1cc2oc(-c3ccc(F)cc3)c(C(=O)NC)c2cc1-c1ccc(OC)c(C(=O)NC(C)(C#N)C(C)C)c1 (stereo not shown) [Compound 1014] | > 7.00 | – |
| CCN(C#N)c1cc2oc(-c3ccc(F)cc3)c(C(=O)NC)c2cc1-c1cccc(C(=O)NC2(C#N)CCC2)c1 [Compound 1015] | > 7.00 | – |
| CCN(C#N)c1cc2oc(-c3ccc(F)cc3)c(C(=O)NC)c2cc1-c1cccc(C(=O)NC(C)(C)C(=O)OC)c1 [Compound 1016] | > 7.00 | – |
| [2H]C([2H])([2H])C(NC(=O)c1cc(-c2cc3c(C(=O)NC)c(-c4ccc(F)cc4)oc3cc2N(C#N)CC)ccc1OC)(C([2H])([2H])[2H])C([2H])([2H])[2H] [Compound 1017] | > 7.00 | EC50 [1]: 0.0039 µM |
| CNC(=O)c1c(-c2ccc(F)cc2)oc2cc(N(CCO)S(C)(=O)=O)c(C3CC3)cc12 [HCV-796] | – | hepatic toxicity (HCV [2]; extended dosing of the combination regimens): hepatic toxicity observed during extended dosing of the combination regimens; HCV RNA levels in patients (HCV [2]; patients, single agent or combined with interferon and ribavirin): has shown an ability to reduce HCV RNA levels in patients |
| alpha-interferon and ribavirin | – | sustained efficacy in patients (HCV [3]): 40% |

From patent US9920036B2, “Cyanoamino (aza)benzofuran compounds for the treatment of hepatitis C” (BRISTOL-MYERS SQUIBB COMPANY, priority 2014, dated 2018)
